We go through two molecules from US20230346718A1, “METHOD OF TREATING, AMELIORATING AND/OR […]” (YALE UNIVERSITY, priority 2022, published 2023).

“Also recorded” adds a separate entry of the source.

In one series the test system is healthy volunteers. The following applies: literature, cited from earlier work.
Series [1] deals with serotonin 5-HT2A receptors (Homo sapiens, UniProt P28223). The following applies: literature; cited from earlier work.
Series [2] has as its system healthy controls (HC) and MDD participants. In words: Cardiovascular safety: blood pressure and heart rate after intravenous DMT. It counts as in vivo, human. How it is done:
(§1) Blood pressure was measured at baseline and 5, 10, 15, 20, 30, 45, 60, and 120 minutes after drug administration. Heart rate and pulse oximetry were measured continuously. Subjective drug effects were measured 60 min before, as well as 30 and 120 min after drug administration.

The test system is the same in series [3]. In words: Psychotomimetic States Inventory (PSI). It is filed as in vivo, human. Here is the method:
(§2) Both the VAS Psychedelic effects, and PSI were measured before dose administration, shortly after resolution of effects, and again near time of discharge. Subjects were instructed to retroactively rate the effects during the peak effects, given that they might not be able to accurately assess and report effects while immersed in the peak effects. […] In addition to day-after dosing follow up, subjects were contacted 1, 2, and 12 weeks after completion of the last dosing session to follow up on safety and wellbeing.

A short description of series [4]: Serum DMT levels after intravenous DMT hemifumarate. It is filed as in vivo, human. Conditions: IV 0.1 and 0.3 mg/kg; 30 and 60 min after administration. How it is done: FIGS. 19A-19B depict serum DMT levels in healthy control (FIG. 19A) and depression subjects (FIG. 19B) with intravenous administration of DMT hemifumarate, in accordance with some embodiments. Y-axis: serum DMT levels (ng/dl); X-axis: 60 min before DMT administration; and 30 and 60 min after DMT administration. […] Solid line (0.1 mg/kg) and dotted line (0.3 mg/kg).
Referring to FIGS. 19A-19B, the present study further reports for the first-time dose-related serum DMT levels in MDD subjects who received 0.1 and […] of IV DMT. The findings in healthy controls are mostly consistent with other studies and PK models (Callaway et al., J Ethnopharmacol. 1999 June; 65(3):243-56; Gallimore and Strassman, Front. Pharmacol., 14 Jul. 2016). […] Given the increased rigor of the assay for DMT utilized in this study, it is unlikely that the variability observed in MDD subjects is spurious. It may be important to note that while DMT's acute effects had mostly resolved by +30 min time point, it is conceivable that peripheral concentration may differ from the central site of action.

The subject of series [5] is healthy controls (HC) and MDD participants. The series can be described thus: Drug desirability / reinforcement and abuse liability measures. The following applies: for monetized value of drug effects (scale from 0-100 dollars): mean (SD). It counts as in vivo, human. How it is done:
VAS measures of tolerability, willingness to pay for the experience, and likelihood to use DMT were analyzed similarly. […] HAM-D for each dose was compared to baseline using paired t-tests. […] For 23-item VAS psychedelic effects, multiple comparison correction was performed using false discovery rate (FDR) correction for all measures in order to increase statistical power and minimize […] errors (Benjamini and Hochberg, Journal of the Royal Statistical Society. Series B (Methodological) Vol. 57, No. 1 (1995), pp. 289-300). For PSI effects, Bonferroni correction was utilized.

The test system is the same in series [6]. In words: Overall tolerability of test day, visual analog scale. The following applies: for overall tolerability (0=intolerable to 100=well-tolerated): mean (SD).
The test system is the same in series [7]. In words: Adverse events of the dosing sessions. It counts as in vivo, human. The text has this: Given the intensity and brevity of DMT effects, participants were allowed a mostly uninterrupted experience with psychiatrists utilizing a non-directive and supportive approach. Participants were asked how they were feeling at the same time points as the physiological recordings; no psychotherapy was provided. Rescue medications for psychological distress (lorazepam and risperidone) and hypertension (labetalol) were available. Prior to discharge, a field sobriety test and mini-mental status examination were conducted to confirm return to baseline.

Series [8] shares this test system. The series can be described thus: In session VAS anxiety and depression. It is filed as in vivo, human. The following applies: for Peak change in VAS depression: MDD participants only; for Peak change in VAS depression / Peak change in VAS anxiety scale: mean (SD); for Peak change in VAS anxiety scale: all participants. Here is the method: as §2
Series [9] shares this test system. In words: Psychedelic effects, 23-item Psychedelic Effects Visual Analog Scale. The following applies: for Peak change in VAS psychedelic composite score: mean (SD). It is filed as in vivo, human. Here is the method: as §1
Both the VAS Psychedelic effects, and PSI were measured before dose administration, shortly after resolution of effects, and again near time of discharge. Subjects were instructed to retroactively rate the effects during the peak effects, given that they might not be able to accurately assess and report effects while immersed in the peak effects.

Sequence of serotonin 5-HT2A receptors (P28223 whole entry): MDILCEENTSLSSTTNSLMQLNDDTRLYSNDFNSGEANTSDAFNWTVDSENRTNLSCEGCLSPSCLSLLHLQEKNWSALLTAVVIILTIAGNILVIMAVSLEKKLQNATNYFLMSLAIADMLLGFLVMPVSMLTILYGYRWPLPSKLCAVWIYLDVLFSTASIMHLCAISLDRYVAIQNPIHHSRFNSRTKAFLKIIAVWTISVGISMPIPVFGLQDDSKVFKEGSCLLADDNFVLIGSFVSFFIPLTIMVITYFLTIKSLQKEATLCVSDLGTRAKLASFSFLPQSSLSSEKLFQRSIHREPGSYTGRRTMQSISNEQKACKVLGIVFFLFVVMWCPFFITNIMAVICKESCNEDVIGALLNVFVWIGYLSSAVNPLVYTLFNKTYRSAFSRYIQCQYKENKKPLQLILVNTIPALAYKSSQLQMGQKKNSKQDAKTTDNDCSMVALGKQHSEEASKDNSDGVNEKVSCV

With `CN(C)CCc1c[nH]c2ccccc12` [DMT hemifumarate, N,N-dimethyltryptamine hemifumarate], in “Water solubility”, the “water solubility (in words)” value is “water-soluble”.

With `CN(C)CCc1c[nH]c2ccccc12` [DMT, N,N-dimethyltryptamine], the “tolerability in healthy controls (in words)” value in the series on healthy volunteers (doses ranging from 0.05-0.4 mg/kg) was “well-tolerated”. Also, the “time to emergence of effects after intravenous administration” value in the series on healthy volunteers (healthy volunteers) was at most 2 min. Besides, the “dose above which psychedelic effects emerge” value with healthy volunteers (intravenous, healthy volunteers) was “higher than 0.2 mg/kg”. Moreover, the “time to full resolution of effects” value with healthy volunteers (intravenous) is recorded as “about 30 minutes”. For the same molecule, the “activity at serotonin 5-HT2A receptors (in words)” value in [1] is “agonist activity”. The “effect on systolic and diastolic blood pressure, and heart rate” value in series [2] (0.1 and 0.3 mg/kg IV, no significant dose or dose-time effects) is on record as “increased”. Moreover, the “time point with significant increases in heart rate relative to baseline” value in [2] (post-hoc analyses) is “+5 minute”. Also, the “Mean peak change in Psychotomimetic States Inventory (PSI) scale total score” value was 7.33 (SD 7.62) in [3] (0.1 mg/kg session, mean (SD)) and 31.67 (16.57) in series [3] (0.3 mg/kg session). Moreover, the “Hedge's g, PSI total score dose difference” value in [3] (0.3 vs 0.1 mg/kg) worked out at 1.89. Besides, the “PSI total score peak change, difference between doses” value in series [3] (95% CI 12.74 to 35.94, p=0.001) was determined as 24.33. The “serum DMT levels in MDD subjects compared with healthy controls (in words)” value in [4] was “can have higher serum DMT levels; also recorded: greater variability”. The results for the “monetized value of drug effects (scale from 0-100 dollars)” value in series [5] (0.1 mg/kg session) and in [5] (0.3 mg/kg session) were 25.56 (SD 29.07) dollars and 24.78 (SD 33.36) dollars, respectively. The “willingness to use DMT, difference between doses” value in series [5] (95% CI −16.74 to 13.62, p=0.90) is reported as −1.56. Also, the “monetized value of drug effects, difference between doses” value in series [5] (95% CI −32.38 to 33.94, p=0.89) is −0.78. Further, in series [5] (intravenous), the “abuse potential (in words)” value is given as “low abuse potential”. In addition, the entries for the “overall tolerability (0=intolerable to 100=well-tolerated)” value in series [6] (0.1 mg/kg IV dose session) and in series [6] (0.3 mg/kg IV dose session) were 89.80 (SD 12.95) and 71.11 (SD 24.52), respectively. Moreover, the “overall tolerability, difference between dose sessions” value in series [6] (0.3 vs 0.1 mg/kg, 95% CI −32.81 to −2.75, p=0.026) was −17.78. Also, in series [6] (IV, HC and MDD participants), the “tolerability (in words)” value is “tolerated by both HC (n=3) and MDD participants (n=7); also recorded: well tolerated by both MDD patients and HC individuals”. For the same molecule, in “Water solubility”, the “water solubility (in words)” value is listed as “not water soluble”. Also, the “oxygen saturation during the serious adverse event” value in [7] (0.3 mg/kg IV, measured continuously) amounted to 100%. For the same molecule, in [7] (0.1 and 0.3 mg/kg IV), the “severity of adverse events (in words)” value is reported as “mostly mild”. In addition, in series [7] (all dosing sessions), the “clinically relevant psychotic symptoms” value is listed as “None of the participants”. For the same molecule, the “number of serious adverse events” value in [7] (asymptomatic bradycardia and hypotension in a MDD participant after 0.3 mg/kg) is reported as “one”. Moreover, the “symptoms in one healthy subject with anticipatory anxiety” value in series [7] (following 0.1 mg/kg, symptoms lasted 10 minutes) is “lightheadedness, and pallor”. Further, the “heart rate in the serious adverse event” value in [7] (person, 5 minutes after 0.3 mg/kg IV, dropped from 54) was 42 beats per minute. Further, the “blood pressure in the serious adverse event” value in [7] (person, 5 minutes after 0.3 mg/kg IV, dropped from 108/60) was 71/42. For the same molecule, in series [8] (95% CI −14.30 to 68.53, p=0.26), the “Peak change in VAS anxiety, difference between doses” value was 27.11. In addition, in series [8] (95% CI −41.47 to 57.47, p=0.92), the “Peak change in VAS depression, difference between doses” value amounted to 8.00. Also, the “Peak change in VAS depression” value in series [8] (0.1 mg/kg session) is reported as 6.83 (SD 28.94); in series [8] (0.3 mg/kg session), 14.83 (SD 37.79). Moreover, the figures for the “Peak change in VAS anxiety scale” value in series [8] (0.1 mg/kg session) and in series [8] (0.3 mg/kg session) were 2.56 (SD 31.8) and 29.67 (SD 39.96), respectively. The “Peak change in VAS psychedelic composite score” value was 13.16 (SD 11.91) in series [9] (0.1 mg/kg session) and 55.83 (SD 23.89) in [9] (0.3 mg/kg dose). In series [9] (0.3 vs 0.1 mg/kg), the “Hedge's g, VAS psychedelic composite score dose difference” value stood at 2.2. Also, the “Peak change in VAS psychedelic composite score, difference between doses” value in series [9] (95% CI 33.30 to 52.03, p<0.0001) worked out at 42.67. Moreover, the “number of the 23 VAS psychedelic items with significant dose-related differences” value in series [9] (FDR correction, q=0.05) amounted to 16. In [9] (IV), the “duration of acute effects / resolution after injection” value fell in the range of 20 to 30 min. Moreover, in [9] (IV push), the “time by which acute psychedelic effects completely subsided” value was at most 30 min. The “time of peak of acute psychedelic effects after dosing” value in series [9] (IV push) fell in the range of 5 to 10 min.
